Test results as given in patent EP4722207A1, “OXOISOINDOLINYL-SUBSTITUTED TETRAHYDROPYRIMIDINEDIONE DERIVATIVE AND USE THEREOF” (Gluetacs Therapeutics (Shanghai) Co., Ltd., priority 2023, dated 2024).

Experiments:
GSPT1 = biological target: T1, GSPT1 (Homo sapiens, UniProt P15170+Q96SW2); test: Western-blot assay, substrate protein degradation in hPBMCs: GSPT1; format: cell-based; conditions: 24 hours of compound treatment, 50 nM and 500 nM
T1 construct: effects of the compounds of the present disclosure on the expression of target proteins in cells; endogenous in cells; host or cells: human PBMCs (hPBMCs)

WEE1 = biological target: T2, WEE1 (Homo sapiens, UniProt P30291+Q96SW2); test: Western-blot assay, substrate protein degradation in hPBMCs: WEE1; format: cell-based; conditions: 24 hours of compound treatment, 50 nM and 500 nM
T2 construct: effects of the compounds of the present disclosure on the expression of target proteins in cells; endogenous in cells; host or cells: human PBMCs (hPBMCs)

IKZF1 = biological target: T3, IKZF1 (Homo sapiens, UniProt Q13422+Q96SW2); test: Western-blot assay, substrate protein degradation in hPBMCs: IKZF1; format: cell-based; conditions: 24 hours of compound treatment, 50 nM and 500 nM
T3 construct: effects of the compounds of the present disclosure on the expression of target proteins in cells; endogenous in cells; host or cells: human PBMCs (hPBMCs)

H292 = test: Cell viability assay (CellTiter-Meiluncell Luminescent), tumor cell proliferation, H292; conditions: Homo sapiens, NCI-H292, 96 h; for inhibition at 0.01 µM: read-out: Inhibition Rate at 10 nM (%); for inhibition at 0.5 µM: read-out: Inhibition Rate at 500 nM (%)
Procedure: The tumor cells used herein were cultured in a cell culture medium listed in table 2 at 37°C in an incubator with 5% CO2. Prior to experimentation, all cell lines used were correctly identified by STR profiling, and tested negative for mycoplasma contamination using a mycoplasma detection kit through routine screenings.
On the following day, the test compounds of the present disclosure were subjected to serial dilution. […] Subsequently, 0.5 µL of the test compound dilution was transferred into the 96-well plate containing the cells, with each well containing 100 µL of cell culture medium. […] Into the 96-well plate, the diluted test compounds and corresponding detection reagents were added, resulting in final test compound concentrations of 500 nM and 10 nM, respectively. The experimental procedure is described below using the diluted 2 µM test compound as an example.
After the cells were treated with the compounds of the present disclosure for a specified period, the cell viability assay reagent was added to the culture medium according to the kit's instructions to determine cell viability. […] All controls were treated using the same procedure as the compounds of the present disclosure. The growth inhibition curves for the compounds of the present disclosure were plotted using Prism GraphPad software, and the IC50 values were calculated therefrom.

H2228 = test: Cell viability assay (CellTiter-Meiluncell Luminescent), tumor cell proliferation, H2228; conditions: Homo sapiens, NCI-H2228, 96 h; for inhibition at 0.01 µM: read-out: Inhibition Rate at 10 nM (%); for inhibition at 0.5 µM: read-out: Inhibition Rate at 500 nM (%)
CK1α = biological target: T4, CK1α (Homo sapiens, UniProt P48729+Q96SW2); test: Western-blot assay, substrate protein degradation in hPBMCs: CK1α; format: cell-based; conditions: 24 hours of compound treatment, 50 nM and 500 nM
T4 construct: effects of the compounds of the present disclosure on the expression of target proteins in cells; endogenous in cells; host or cells: human PBMCs (hPBMCs)

MDA-MB-231 = test: Cell viability assay (CellTiter-Meiluncell Luminescent), tumor cell proliferation, MDA-MB-231; conditions: Homo sapiens, MDA-MB-231, 96 h; for inhibition at 0.01 µM: read-out: Inhibition Rate at 10 nM (%); for inhibition at 0.5 µM: read-out: Inhibition Rate at 500 nM (%)
IKZF3 = biological target: T5, IKZF3 (Homo sapiens, UniProt Q96SW2+Q9UKT9); test: Western-blot assay, substrate protein degradation in hPBMCs: IKZF3; format: cell-based; conditions: 24 hours of compound treatment, 50 nM and 500 nM
T5 construct: effects of the compounds of the present disclosure on the expression of target proteins in cells; endogenous in cells; host or cells: human PBMCs (hPBMCs)

IKZF2 = biological target: T6, IKZF2 (Homo sapiens, UniProt Q96SW2+Q9UKS7); test: Western-blot assay, substrate protein degradation in hPBMCs: IKZF2; format: cell-based; conditions: 24 hours of compound treatment, 50 nM and 500 nM
T6 construct: effects of the compounds of the present disclosure on the expression of target proteins in cells; endogenous in cells; host or cells: human PBMCs (hPBMCs)

MV-4-11 = test: Cell viability assay (CellTiter-Meiluncell Luminescent), tumor cell proliferation, MV-4-11; conditions: Homo sapiens, MV4-11, 96 h; for inhibition at 0.01 µM: read-out: Inhibition Rate at 10 nM (%); for inhibition at 0.5 µM: read-out: Inhibition Rate at 500 nM (%)
MM.1S = test: Cell viability assay (CellTiter-Meiluncell Luminescent), tumor cell proliferation, MM.1S; conditions: Homo sapiens, MM1.S, 96 h; for inhibition at 0.01 µM: read-out: Inhibition Rate at 10 nM (%); for inhibition at 0.5 µM: read-out: Inhibition Rate at 500 nM (%)

T2 sequence (P30291 whole entry): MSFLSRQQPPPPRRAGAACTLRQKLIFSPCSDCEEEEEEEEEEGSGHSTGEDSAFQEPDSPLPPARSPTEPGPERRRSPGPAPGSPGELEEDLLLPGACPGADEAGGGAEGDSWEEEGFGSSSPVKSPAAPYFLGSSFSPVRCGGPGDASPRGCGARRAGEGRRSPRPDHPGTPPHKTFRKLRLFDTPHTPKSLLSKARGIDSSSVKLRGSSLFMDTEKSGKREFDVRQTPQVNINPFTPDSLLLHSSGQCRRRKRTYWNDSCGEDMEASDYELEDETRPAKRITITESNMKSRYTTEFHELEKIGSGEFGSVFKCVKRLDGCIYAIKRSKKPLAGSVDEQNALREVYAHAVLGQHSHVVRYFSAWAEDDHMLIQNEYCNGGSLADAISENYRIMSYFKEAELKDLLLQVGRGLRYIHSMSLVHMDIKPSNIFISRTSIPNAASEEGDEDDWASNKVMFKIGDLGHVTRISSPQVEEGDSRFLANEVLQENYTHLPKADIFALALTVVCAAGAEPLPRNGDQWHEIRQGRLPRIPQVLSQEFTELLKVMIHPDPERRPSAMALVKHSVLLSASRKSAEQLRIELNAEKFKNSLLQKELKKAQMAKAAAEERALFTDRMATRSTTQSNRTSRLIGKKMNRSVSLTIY
T2 sequence (Q96SW2 whole entry): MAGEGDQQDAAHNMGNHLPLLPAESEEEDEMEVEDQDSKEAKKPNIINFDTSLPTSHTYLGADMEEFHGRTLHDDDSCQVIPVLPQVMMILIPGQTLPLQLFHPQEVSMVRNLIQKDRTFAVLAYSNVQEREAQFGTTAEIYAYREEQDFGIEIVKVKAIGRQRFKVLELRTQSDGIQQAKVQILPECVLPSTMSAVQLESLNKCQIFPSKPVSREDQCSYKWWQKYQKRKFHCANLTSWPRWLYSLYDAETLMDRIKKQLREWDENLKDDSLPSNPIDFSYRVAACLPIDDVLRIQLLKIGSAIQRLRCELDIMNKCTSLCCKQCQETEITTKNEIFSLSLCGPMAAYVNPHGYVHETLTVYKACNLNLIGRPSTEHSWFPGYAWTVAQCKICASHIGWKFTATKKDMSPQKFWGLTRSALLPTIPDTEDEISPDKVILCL
T2 sequence (Q16531 whole entry partner): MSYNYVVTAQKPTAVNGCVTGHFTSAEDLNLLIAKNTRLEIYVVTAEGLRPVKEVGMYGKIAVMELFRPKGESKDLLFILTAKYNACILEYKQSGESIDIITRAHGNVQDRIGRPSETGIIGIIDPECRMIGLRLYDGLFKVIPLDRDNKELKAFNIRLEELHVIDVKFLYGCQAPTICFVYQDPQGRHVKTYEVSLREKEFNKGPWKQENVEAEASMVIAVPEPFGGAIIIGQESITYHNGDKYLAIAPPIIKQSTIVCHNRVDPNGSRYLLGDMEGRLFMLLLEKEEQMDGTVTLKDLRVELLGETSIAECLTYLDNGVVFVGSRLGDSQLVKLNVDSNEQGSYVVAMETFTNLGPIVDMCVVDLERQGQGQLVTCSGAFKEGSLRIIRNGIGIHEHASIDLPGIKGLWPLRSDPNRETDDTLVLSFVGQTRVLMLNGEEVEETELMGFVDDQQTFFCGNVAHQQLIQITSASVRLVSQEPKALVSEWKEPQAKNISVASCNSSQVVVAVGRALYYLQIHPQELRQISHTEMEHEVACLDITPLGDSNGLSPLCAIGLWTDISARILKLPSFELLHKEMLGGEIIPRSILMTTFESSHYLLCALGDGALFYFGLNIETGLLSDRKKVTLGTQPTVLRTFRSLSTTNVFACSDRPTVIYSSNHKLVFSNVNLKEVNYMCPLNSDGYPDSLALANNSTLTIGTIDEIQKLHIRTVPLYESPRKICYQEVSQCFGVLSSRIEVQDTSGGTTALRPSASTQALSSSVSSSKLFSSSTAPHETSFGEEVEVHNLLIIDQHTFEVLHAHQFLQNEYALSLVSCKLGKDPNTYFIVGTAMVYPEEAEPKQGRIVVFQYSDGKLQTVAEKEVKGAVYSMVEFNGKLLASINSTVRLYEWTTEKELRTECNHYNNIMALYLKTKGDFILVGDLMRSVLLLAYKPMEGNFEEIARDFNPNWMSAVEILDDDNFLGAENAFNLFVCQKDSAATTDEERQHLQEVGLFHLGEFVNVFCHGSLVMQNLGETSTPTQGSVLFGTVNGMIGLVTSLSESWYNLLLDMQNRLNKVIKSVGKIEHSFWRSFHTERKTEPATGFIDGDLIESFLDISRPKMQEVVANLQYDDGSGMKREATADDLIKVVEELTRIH
T5 sequence (Q9UKT9 whole entry): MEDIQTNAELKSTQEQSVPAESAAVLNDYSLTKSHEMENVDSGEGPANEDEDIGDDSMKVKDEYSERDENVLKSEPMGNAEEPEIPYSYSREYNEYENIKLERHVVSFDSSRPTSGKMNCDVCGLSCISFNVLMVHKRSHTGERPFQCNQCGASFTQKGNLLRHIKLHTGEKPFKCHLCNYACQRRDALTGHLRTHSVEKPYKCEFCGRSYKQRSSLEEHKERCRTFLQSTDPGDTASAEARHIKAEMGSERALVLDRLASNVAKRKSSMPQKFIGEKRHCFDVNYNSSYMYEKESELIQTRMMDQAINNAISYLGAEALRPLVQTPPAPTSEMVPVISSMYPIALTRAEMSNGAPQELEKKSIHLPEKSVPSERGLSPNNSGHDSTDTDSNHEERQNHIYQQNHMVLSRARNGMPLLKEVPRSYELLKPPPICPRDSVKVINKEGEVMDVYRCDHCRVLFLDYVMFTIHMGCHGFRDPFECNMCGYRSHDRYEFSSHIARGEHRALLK
T5 sequence (Q96SW2 whole entry): as the sequence (Q96SW2 whole entry) above
T5 sequence (Q16531 whole entry partner): as the sequence (Q16531 whole entry partner) above
T1 sequence (P15170 whole entry): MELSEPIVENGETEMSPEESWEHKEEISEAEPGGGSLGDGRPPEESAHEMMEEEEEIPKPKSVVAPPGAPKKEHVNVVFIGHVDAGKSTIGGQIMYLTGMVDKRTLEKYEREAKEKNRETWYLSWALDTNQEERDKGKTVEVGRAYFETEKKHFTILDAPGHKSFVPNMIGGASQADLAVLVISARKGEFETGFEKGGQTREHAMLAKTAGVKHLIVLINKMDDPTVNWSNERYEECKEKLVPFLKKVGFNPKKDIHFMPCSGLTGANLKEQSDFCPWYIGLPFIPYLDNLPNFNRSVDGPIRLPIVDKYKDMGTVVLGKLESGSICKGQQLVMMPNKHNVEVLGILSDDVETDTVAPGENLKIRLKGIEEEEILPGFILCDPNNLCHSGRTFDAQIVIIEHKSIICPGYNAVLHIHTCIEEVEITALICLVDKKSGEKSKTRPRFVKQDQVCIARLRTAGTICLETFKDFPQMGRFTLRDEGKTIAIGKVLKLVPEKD
T1 sequence (Q96SW2 whole entry): as the sequence (Q96SW2 whole entry) above
T1 sequence (Q16531 whole entry partner): as the sequence (Q16531 whole entry partner) above
T3 sequence (Q13422 whole entry): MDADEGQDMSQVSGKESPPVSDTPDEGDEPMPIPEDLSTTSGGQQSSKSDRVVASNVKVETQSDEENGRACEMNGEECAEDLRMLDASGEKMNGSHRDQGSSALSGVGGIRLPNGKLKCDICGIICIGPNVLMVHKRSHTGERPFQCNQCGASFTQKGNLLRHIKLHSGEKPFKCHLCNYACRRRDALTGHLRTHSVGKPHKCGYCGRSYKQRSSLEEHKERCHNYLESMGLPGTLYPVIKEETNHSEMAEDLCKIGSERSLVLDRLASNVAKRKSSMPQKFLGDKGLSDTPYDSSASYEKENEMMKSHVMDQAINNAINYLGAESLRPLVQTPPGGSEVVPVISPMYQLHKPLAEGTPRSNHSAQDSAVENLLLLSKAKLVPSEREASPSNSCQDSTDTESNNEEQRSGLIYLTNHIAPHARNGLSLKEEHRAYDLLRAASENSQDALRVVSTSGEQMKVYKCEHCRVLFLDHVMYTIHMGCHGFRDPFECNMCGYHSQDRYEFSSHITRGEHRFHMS
T3 sequence (Q96SW2 whole entry): as the sequence (Q96SW2 whole entry) above
T3 sequence (Q16531 whole entry partner): as the sequence (Q16531 whole entry partner) above
T6 sequence (Q9UKS7 whole entry): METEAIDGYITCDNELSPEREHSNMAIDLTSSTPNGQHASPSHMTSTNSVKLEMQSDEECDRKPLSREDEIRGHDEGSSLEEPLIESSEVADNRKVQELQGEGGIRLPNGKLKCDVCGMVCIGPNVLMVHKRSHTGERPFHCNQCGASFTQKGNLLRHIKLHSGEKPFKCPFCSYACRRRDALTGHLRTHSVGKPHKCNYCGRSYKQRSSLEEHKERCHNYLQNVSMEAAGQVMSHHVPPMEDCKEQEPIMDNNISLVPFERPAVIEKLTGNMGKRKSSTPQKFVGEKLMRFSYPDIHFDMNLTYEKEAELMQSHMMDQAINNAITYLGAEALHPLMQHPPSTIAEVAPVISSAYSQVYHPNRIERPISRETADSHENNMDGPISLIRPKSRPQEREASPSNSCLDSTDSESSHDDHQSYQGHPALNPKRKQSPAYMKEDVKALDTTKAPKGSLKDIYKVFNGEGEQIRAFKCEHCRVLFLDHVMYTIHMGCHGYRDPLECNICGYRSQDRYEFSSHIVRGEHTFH
T6 sequence (Q96SW2 whole entry): as the sequence (Q96SW2 whole entry) above
T6 sequence (Q16531 whole entry partner): as the sequence (Q16531 whole entry partner) above

SMILES	substrate protein remaining % GSPT1 (GSPT1)	substrate protein remaining % WEE1 (WEE1)	substrate protein remaining % IKZF1 (IKZF1)	inhibition at 0.01 µM (H292) [%]	inhibition at 0.5 µM (H292) [%]	inhibition at 0.01 µM (H2228) [%]	inhibition at 0.5 µM (H2228) [%]	substrate protein remaining % CK1α (CK1α)	inhibition at 0.01 µM (MDA-MB-231) [%]	inhibition at 0.5 µM (MDA-MB-231) [%]	substrate protein remaining % IKZF3 (IKZF3)	substrate protein remaining % IKZF2 (IKZF2)	inhibition at 0.01 µM (MV-4-11) [%]	inhibition at 0.5 µM (MV-4-11) [%]	inhibition at 0.01 µM (MM.1S) [%]	inhibition at 0.5 µM (MM.1S) [%]
O=C1CCN(N2Cc3cc(CNC45CC6CC(CC(O)(C6)C4)C5)ccc3C2=O)C(=O)N1 [GT-07784, 1-(5-((((1r,3s,5R,7S)-3-hydroxyadamantan-1-yl)amino)methyl)-1-oxoisoindolin-2-yl)dihydropyrimidine-2,4(1H,3H)-dione]	B (80%< substrate protein remaining %≤ 100%)	B (80%< substrate protein remaining %≤ 100%)	B (80%< substrate protein remaining %≤ 100%)	20 to 40	20 to 40	25 to 30	30 to 40	B (80%< substrate protein remaining %≤ 100%)	18 to 25	25 to 40	B (80%< substrate protein remaining %≤ 100%)	A (0% ≤ substrate protein remaining % ≤ 80%)	–	–	–	–
Cc1csc2ncnc(N3CCN(Cc4ccc5c(c4)C(=O)N(N4CCC(=O)NC4=O)C5=O)CC3)c12 [GT-08091, 2-(2,4-dioxotetrahydropyrimidin-1(2H)-yl)-5-((4-(5-methylthieno[2,3-d]pyrimidin-4-yl)piperazin-1-yl)methyl)isoindoline-1,3-dione]	A (0% ≤ substrate protein remaining % ≤ 80%)	A (0% ≤ substrate protein remaining % ≤ 80%)	B (80%< substrate protein remaining %≤ 100%)	20 to 40	20 to 40	20 to 25	20 to 25	A (0% ≤ substrate protein remaining % ≤ 80%)	15 to 18	18 to 25	B (80%< substrate protein remaining %≤ 100%)	B (80%< substrate protein remaining %≤ 100%)	–	–	–	–
Cc1cc2c(N3CCN(Cc4ccc5c(c4)CN(N4CCC(=O)NC4=O)C5=O)CC3)ncnc2s1 [GT-08059, 1-(5-((4-(6-methylthieno[2,3-d]pyrimidin-4-yl)piperazin-1-yl)methyl)-1-oxoisoindolin-2-yl)dihydropyrimidine-2,4(1H,3H)-dione]	B (80%< substrate protein remaining %≤ 100%)	B (80%< substrate protein remaining %≤ 100%)	B (80%< substrate protein remaining %≤ 100%)	20 to 40	5 to 10	30 to 40	15 to 20	B (80%< substrate protein remaining %≤ 100%)	25 to 40	25 to 40	A (0% ≤ substrate protein remaining % ≤ 80%)	B (80%< substrate protein remaining %≤ 100%)	–	–	–	–
Cc1nc(C2CCN(Cc3ccc4c(c3)CN(N3CCC(=O)NC3=O)C4=O)CC2)c2c3c(sc2n1)CCCC3 [GT-08089, 1-(5-((4-(2-methyl-5,6,7,8-tetrahydrobenzo[4,5]thieno[2,3-d]pyrimidin-4-yl)piperidin-1-yl)methyl)-1-oxoisoindolin-2-yl)dihydropyrimidine-2,4(1H,3H)-dione]	A (0% ≤ substrate protein remaining % ≤ 80%)	A (0% ≤ substrate protein remaining % ≤ 80%)	B (80%< substrate protein remaining %≤ 100%)	20 to 40	20 to 40	20 to 25	20 to 25	A (0% ≤ substrate protein remaining % ≤ 80%)	18 to 25	25 to 40	B (80%< substrate protein remaining %≤ 100%)	B (80%< substrate protein remaining %≤ 100%)	–	–	–	–
CC(C)c1cc2c(N3CCN(Cc4ccc5c(c4)C(=O)N(N4CCC(=O)NC4=O)C5=O)CC3)ncnc2s1 [GT-08093, 2-(2,4-dioxotetrahydropyrimidin-1(2H)-yl)-5-((4-(6-isopropylthieno[2,3-d]pyrimidin-4-yl)piperazin-1-yl)methyl)isoindoline-1,3-dione]	A (0% ≤ substrate protein remaining % ≤ 80%)	A (0% ≤ substrate protein remaining % ≤ 80%)	B (80%< substrate protein remaining %≤ 100%)	15 to 20	15 to 20	20 to 25	20 to 25	A (0% ≤ substrate protein remaining % ≤ 80%)	–	–	B (80%< substrate protein remaining %≤ 100%)	B (80%< substrate protein remaining %≤ 100%)	40 to 60	60 to 80	–	–
O=C1CCN(N2Cc3cc(CN4CCC(c5ncnc6scc(-c7ccccc7)c56)CC4)ccc3C2=O)C(=O)N1 [GT-08086, 1-(1-oxo-5-((4-(5-phenylthieno[2,3-d]pyrimidin-4-yl)piperidin-1-yl)methyl)isoindolin-2-yl)dihydropyrimidine-2,4(1H,3H)-dione]	–	–	–	20 to 40	20 to 40	20 to 25	20 to 25	–	25 to 40	25 to 40	–	–	–	–	–	–
Cc1cc2c(C3=CCN(Cc4ccc5c(c4)CN(N4CCC(=O)NC4=O)C5=O)CC3)ncnc2s1 [GT-08157, 1-(5-((4-(6-methylthieno[2,3-d]pyrimidin-4-yl)-3,6-dihydropyridin-1(2H)-yl)methyl)-1-oxoisoindolin-2-yl)dihydropyrimidine-2,4(1H,3H)-dione]	–	–	–	20 to 40	15 to 20	–	–	–	15 to 18	25 to 40	–	–	18 to 25	80 to 100	-5 to 0	80 to 100
O=C1CCN(N2Cc3cc(CN4CC=C(c5ncnc6sc7c(c56)CCCC7)CC4)ccc3C2=O)C(=O)N1 [GT-08178, 1-(1-oxo-5-((4-(5,6,7,8-tetrahydrobenzo[4,5]thieno[2,3-d]pyrimidin-4-yl)-3,6-dihydropyridin-1(2H)-yl)methyl)isoindolin-2-yl)dihydropyrimidine-2,4(1H,3H)-dione]	–	–	–	40 to 60	20 to 40	–	–	–	18 to 25	18 to 25	–	–	60 to 80	80 to 100	60 to 80	60 to 80
O=C1CCN(N2C(=O)c3ccc(CN4CCN(c5ncnc6scc(-c7ccccc7)c56)CC4)cc3C2=O)C(=O)N1 [GT-08098, 2-(2,4-dioxotetrahydropyrimidin-1(2H)-yl)-5-((4-(5-phenylthieno[2,3-d]pyrimidin-4-yl)piperazin-1-yl)methyl)isoindoline-1,3-dione]	A (0% ≤ substrate protein remaining % ≤ 80%)	B (80%< substrate protein remaining %≤ 100%)	B (80%< substrate protein remaining %≤ 100%)	–	–	10 to 15	25 to 30	B (80%< substrate protein remaining %≤ 100%)	–	–	B (80%< substrate protein remaining %≤ 100%)	B (80%< substrate protein remaining %≤ 100%)	18 to 25	18 to 25	–	–
Cc1sc2ncnc(N3CCN(Cc4ccc5c(c4)CN(N4CCC(=O)NC4=O)C5=O)CC3)c2c1C [GT-08061, 1-(5-((4-(5,6-dimethylthieno[2,3-d]pyrimidin-4-yl)piperazin-1-yl)methyl)-1-oxoisoindolin-2-yl)dihydropyrimidine-2,4(1H,3H)-dione]	B (80%< substrate protein remaining %≤ 100%)	B (80%< substrate protein remaining %≤ 100%)	B (80%< substrate protein remaining %≤ 100%)	–	–	10 to 15	25 to 30	B (80%< substrate protein remaining %≤ 100%)	10 to 15	18 to 25	A (0% ≤ substrate protein remaining % ≤ 80%)	A (0% ≤ substrate protein remaining % ≤ 80%)	–	–	–	–
